The results in this text go back to US9777012B2, “Substituted furo[2,3-d]pyrimidines as multi-targeted receptor tyrosine kinase inhibitors and microtubule targeting antitumor agents” (Duquesne University of the Holy Spirit, priority 2014, dated 2017).

“And” between values parts separate entries of the source, which are not always exact repeats. Equal values may be shown once. Where only a bound is given, the exact number is not on record here.

For one assay, the system named is WTβ3 cells. Nature of the assay: SRB antiproliferative assay, WTβ3 (HeLa overexpressing βIII tubulin). The assay is classed as cell-based. The conditions noted are these: relative resistance, WTβ3 vs parental HeLa. A general note: The SRB assay estimates cell density from bound dye.
The next assay deals with M6/6 cells. Nature of the assay: SRB antiproliferative assay, M6/6 (SK-OV-3 expressing Pgp). The conditions noted are these: for Rr value: relative resistance, M6/6 (Pgp) vs parental SKOV3; for IC50: Homo sapiens, SK-OV-3, SRB assay, 48 h, Pgp expressing, read-out: IC50 ± SD in M6/6 cells. The assay is classed as cell-based.
Assay [1] has as its system cellular microtubules in A-10 cells. Put plainly: Cellular microtubule depolymerization, indirect immunofluorescence. Format: cell-based. Conditions: for effect on cellular microtubules: result in words.
Experimental: Evaluation of microtubule inhibition was performed using previously described methods.^22 Indirect immunofluorescence was used to evaluate the effects of the compounds on cellular microtubules as described previously.^38 Briefly, A-10 cells were treated for 18 h with vehicle (DMSO) or a compound, and microtubule effects were evaluated microscopically using β-tubulin antibody. The EC50 was calculated from 3 independent experiments and expressed as the mean±SD.
The next assay has as its target T1, EGFR (Homo sapiens, UniProt P00533).
T1 construct: tumor cell lines naturally expressing high levels of EGFR (A431); endogenous in cells; host or cells: A431
Put plainly: Phosphotyrosine ELISA cytoblot, EGFR (A431 cells). The assay is classed as cell-based. Conditions: EGF stimulation, read-out: EGFR kinase inhibition.

The next assay deals with T2, PDGFR-β (Homo sapiens, UniProt P09619).
T2 construct: naturally expressing high levels of EGFR (A431), VEGFR-2 (U251), and PDGFR-β (SH-SY5Y); endogenous in cells; host or cells: SH-SY5Y
Put plainly: Phosphotyrosine ELISA cytoblot, PDGFR-β (SH-SY5Y cells). Format: cell-based. Conditions: for IC50: SH-SY5Y cells, phosphotyrosine ELISA, PDGF-BB stimulation, read-out: PDGFR-β kinase inhibition; for fold better than sunitinib, PDGFR-β: PDGFR-β expressing cells. Background: In an ELISA, binding on a coated surface is turned into a signal by an enzyme label.

A further assay has as its target T3, VEGFR-2 (Homo sapiens, UniProt P35968).
T3 construct: tumor cell lines naturally expressing high levels of EGFR (A431), VEGFR-2 (U251); endogenous in cells; host or cells: U251
Put plainly: Phosphotyrosine ELISA cytoblot, VEGFR-2 (U251 cells). The assay is classed as cell-based. Conditions: for IC50: U251 cells, phosphotyrosine ELISA, VEGF stimulation, read-out: VEGFR-2 kinase inhibition; for fold better than sunitinib, VEGFR-2: VEGFR-2 expressing cells.

The subject of the next assay is tubulin. Nature of the assay: Inhibition of tubulin assembly (purified tubulin). Format: biochemical. The conditions noted are these: read-out: Inhibition tubulin assembly IC50(μM) ± SD.
Another assay has as its system A431 cancer cells. Put plainly: A431 cytotoxicity (cell proliferation). The assay is classed as cell-based. The conditions noted are these: Homo sapiens, A-431; A431 cancer cells overexpressing EGFR.

T3 sequence (P35968 20-1356): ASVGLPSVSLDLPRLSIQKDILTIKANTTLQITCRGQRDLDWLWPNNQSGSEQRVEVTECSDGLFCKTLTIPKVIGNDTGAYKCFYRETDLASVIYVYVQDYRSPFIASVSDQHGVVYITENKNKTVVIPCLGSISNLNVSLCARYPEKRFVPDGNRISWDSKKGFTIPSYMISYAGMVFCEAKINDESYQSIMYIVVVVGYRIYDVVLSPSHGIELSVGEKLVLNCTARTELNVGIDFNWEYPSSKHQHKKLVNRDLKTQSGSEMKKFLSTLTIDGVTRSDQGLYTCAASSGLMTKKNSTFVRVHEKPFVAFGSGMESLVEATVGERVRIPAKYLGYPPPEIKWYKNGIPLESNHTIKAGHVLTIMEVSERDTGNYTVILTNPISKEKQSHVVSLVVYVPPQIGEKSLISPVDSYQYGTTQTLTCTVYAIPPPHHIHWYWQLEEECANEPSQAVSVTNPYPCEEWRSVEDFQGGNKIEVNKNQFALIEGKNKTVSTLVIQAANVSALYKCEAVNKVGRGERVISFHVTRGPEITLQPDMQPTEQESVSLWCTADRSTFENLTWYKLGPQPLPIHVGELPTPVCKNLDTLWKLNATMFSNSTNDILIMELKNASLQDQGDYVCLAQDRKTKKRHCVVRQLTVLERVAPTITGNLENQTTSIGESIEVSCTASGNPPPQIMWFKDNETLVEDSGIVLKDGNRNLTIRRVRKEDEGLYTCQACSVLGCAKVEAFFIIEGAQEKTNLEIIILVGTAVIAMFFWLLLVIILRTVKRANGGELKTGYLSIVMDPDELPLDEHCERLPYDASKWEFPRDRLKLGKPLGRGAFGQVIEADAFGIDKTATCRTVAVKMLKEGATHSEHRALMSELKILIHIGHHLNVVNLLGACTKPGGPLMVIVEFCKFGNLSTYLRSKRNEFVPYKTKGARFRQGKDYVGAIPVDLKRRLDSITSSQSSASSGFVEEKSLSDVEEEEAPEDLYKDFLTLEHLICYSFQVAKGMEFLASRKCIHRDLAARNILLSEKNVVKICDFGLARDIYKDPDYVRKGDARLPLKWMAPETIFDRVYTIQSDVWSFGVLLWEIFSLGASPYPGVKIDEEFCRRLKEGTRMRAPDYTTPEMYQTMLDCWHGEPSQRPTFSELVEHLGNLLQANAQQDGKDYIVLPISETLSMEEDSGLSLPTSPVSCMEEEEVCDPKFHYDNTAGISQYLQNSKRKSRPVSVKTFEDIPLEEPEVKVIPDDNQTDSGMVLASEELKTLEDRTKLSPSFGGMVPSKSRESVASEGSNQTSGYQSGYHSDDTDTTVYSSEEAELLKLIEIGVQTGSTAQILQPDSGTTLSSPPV
T2 sequence (P09619 33-1106): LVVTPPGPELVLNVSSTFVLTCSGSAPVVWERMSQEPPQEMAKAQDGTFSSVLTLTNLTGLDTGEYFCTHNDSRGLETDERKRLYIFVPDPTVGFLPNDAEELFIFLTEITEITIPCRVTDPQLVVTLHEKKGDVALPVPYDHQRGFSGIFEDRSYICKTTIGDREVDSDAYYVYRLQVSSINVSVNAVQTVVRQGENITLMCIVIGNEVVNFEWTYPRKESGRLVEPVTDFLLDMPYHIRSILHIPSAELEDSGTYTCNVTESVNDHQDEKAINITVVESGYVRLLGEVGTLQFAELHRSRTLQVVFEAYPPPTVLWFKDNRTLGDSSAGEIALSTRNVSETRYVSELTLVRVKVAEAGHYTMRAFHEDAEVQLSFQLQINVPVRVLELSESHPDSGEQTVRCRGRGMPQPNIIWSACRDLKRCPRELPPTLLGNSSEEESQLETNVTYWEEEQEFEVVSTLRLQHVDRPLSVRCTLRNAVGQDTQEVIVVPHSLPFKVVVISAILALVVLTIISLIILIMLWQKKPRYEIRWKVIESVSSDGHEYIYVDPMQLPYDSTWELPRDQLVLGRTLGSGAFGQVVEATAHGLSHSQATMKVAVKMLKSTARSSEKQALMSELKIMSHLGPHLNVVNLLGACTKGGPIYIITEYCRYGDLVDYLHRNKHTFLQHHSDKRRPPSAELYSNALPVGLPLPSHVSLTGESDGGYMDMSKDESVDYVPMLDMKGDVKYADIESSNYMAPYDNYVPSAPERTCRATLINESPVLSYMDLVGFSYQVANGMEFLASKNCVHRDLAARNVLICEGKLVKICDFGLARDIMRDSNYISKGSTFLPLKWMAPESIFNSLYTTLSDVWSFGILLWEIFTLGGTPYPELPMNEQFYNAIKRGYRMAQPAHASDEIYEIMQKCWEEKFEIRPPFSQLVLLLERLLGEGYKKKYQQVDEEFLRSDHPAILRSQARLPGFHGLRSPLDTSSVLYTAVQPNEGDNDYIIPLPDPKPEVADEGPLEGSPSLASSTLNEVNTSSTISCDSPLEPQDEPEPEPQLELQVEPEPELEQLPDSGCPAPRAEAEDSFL
T1 sequence (P00533 25-1210): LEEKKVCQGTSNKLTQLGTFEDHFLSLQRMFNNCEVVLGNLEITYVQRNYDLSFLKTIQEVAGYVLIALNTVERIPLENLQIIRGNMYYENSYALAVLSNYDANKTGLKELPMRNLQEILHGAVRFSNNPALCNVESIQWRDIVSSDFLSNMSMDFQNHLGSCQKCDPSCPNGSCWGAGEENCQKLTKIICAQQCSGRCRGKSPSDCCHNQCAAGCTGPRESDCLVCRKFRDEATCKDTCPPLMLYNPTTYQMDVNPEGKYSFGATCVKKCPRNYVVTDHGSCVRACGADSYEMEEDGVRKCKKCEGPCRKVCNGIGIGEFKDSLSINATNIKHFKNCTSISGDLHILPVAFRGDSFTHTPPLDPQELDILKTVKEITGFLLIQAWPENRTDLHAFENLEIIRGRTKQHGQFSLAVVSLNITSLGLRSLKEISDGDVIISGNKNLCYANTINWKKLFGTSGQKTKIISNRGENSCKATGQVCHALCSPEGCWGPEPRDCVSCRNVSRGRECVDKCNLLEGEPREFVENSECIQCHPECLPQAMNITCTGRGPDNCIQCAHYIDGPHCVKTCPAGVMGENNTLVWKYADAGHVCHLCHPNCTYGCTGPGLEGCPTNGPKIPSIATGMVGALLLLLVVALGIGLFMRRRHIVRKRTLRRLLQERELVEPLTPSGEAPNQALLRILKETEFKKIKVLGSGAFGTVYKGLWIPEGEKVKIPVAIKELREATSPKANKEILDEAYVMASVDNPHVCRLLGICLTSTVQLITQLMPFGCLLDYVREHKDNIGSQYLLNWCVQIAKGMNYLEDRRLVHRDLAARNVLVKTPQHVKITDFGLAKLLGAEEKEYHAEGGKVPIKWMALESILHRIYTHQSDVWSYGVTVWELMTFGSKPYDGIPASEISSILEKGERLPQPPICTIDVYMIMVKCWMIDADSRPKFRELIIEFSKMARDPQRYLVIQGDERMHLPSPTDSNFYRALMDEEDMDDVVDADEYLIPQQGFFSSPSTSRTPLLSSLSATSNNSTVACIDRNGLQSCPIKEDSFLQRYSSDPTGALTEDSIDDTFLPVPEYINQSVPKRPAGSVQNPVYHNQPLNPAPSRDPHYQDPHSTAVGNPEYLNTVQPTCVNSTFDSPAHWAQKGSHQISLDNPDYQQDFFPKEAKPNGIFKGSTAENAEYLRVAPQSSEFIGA
Experimental for PDGFR-β: (§1) Phosphotyrosine ELISA. Cells used were tumor cell lines naturally expressing high levels of EGFR (A431), VEGFR-2 (U251), and PDGFR-β (SH-SY5Y). […] The reaction was stopped and cells were permeabilized by quickly removing the media from the cells and adding ice-cold Tris-buffered saline (TBS) containing 0.05% Triton X-100, protease inhibitor cocktail and tyrosine phosphatase inhibitor cocktail. The TBS solution was then removed and cells fixed to the plate for 30 min at 60° C. and further incubation in 70% ethanol for an additional 30 min. Cells were further exposed to block (TBS with 1% BSA) for 1 h, washed, and then a horseradish peroxidase (HRP)-conjugated phosphotyrosine (PY) antibody was added overnight.
Experimental for VEGFR-2: as §1

In the case of `COc1ccc(/C=C\c2cc(OC)c(OC)c(OC)c2)cc1O` [CA-4, combretastatin A-4, reference compound], the Rr value is given as 1.0 with WTβ3 cells and 0.4 in the assay with M6/6 cells.
On to `COc1ccc2c(c1)CCN2c1nc(C)nc2oc(C)cc12` [Compound 8, 4-(5-methoxyindolin-1-yl)-2,6-dimethylfuro[2,3-d]pyrimidine], for which the “effect on cellular microtubules” value in assay [1] was “no effect on cellular microtubules”.
As to `COc1ccc2c(ccn2-c2nc(C)nc3oc(C)cc23)c1` [Compound 9, 4-(5-methoxy-1H-indol-1-yl)-2,6-dimethylfuro[2,3-d]pyrimidine], the IC50 at EGFR is above 500 nM.
In the case of `CCOc1ccc(N(C)c2nc(C)nc3oc(C)cc23)cc1` [Compound 11, N-(4-ethoxyphenyl)-N,2,6-trimethylfuro[2,3-d]pyrimidin-4-amine], the IC50 on PDGFR-β was determined as 84 ± 10 nM; at EGFR, 102 ± 20.1 nM; on VEGFR-2, 38.5 ± 4.7 nM.
Regarding `Cc1nc(N(C)c2ccc3occc3c2)c2cc(C)oc2n1` [Compound 7, N-1-benzofuran-5-yl-N,2,6-trimethylfuro[2,3-d]pyrimidin-4-amine], in the assay on M6/6 cells, the IC50 came to 509 ± 4.8 nM and the Rr value turned out to be 1.2. For the same compound, the “fold better than sunitinib, PDGFR-β” value on PDGFR-β is reported as “about 4 fold”. The “effect on cellular microtubules” value in assay [1] is listed as “dose-dependent loss of cellular microtubules”. Further, at VEGFR-2, the “fold better than sunitinib, VEGFR-2” value came to 3 fold.
Consider `COc1ccc(N(C)c2nc(C)nc3oc(C)cc23)cc1` [Compound 1], for which, in the assay with tubulin, the IC50 is 2.4 ± 0.01 µM. Also, the Rr value is given as 0.8 in the assay on WTβ3 cells and 1.7 in the assay with M6/6 cells. Also, the EC50 – broadly, the midpoint of the concentration-response curve – in assay [1] (Rattus norvegicus, A10, 18 h, read-out: EC50 for MT depolymerization in A · 10 cells) amounted to 103 nM.
With `CCCOc1ccc(N(C)c2nc(C)nc3oc(C)cc23)cc1` [Compound 12, N-2,6-trimethyl-N-(4-propoxyphenyl)furo[2,3-d]pyrimidin-4-amine], the IC50 was 30.8 ± 1.7 nM with M6/6 cells; 132 ± 14.4 nM on PDGFR-β; 92.9 ± 10.1 nM in the assay with A431 cancer cells; above 500 nM on EGFR; 121 ± 18.6 nM on VEGFR-2. The Rr value with M6/6 cells is 1.3.
For the compound `COc1ccc(N(C)c2nc(C)nc3oc(C)cc23)cc1OC` [Compound 3, N-(3,4-dimethoxyphenyl)-N,2,6-trimethylfuro[2,3-d]pyrimidin-4-amine], the “effect on cellular microtubules” value in assay [1] is recorded as “dose-dependent loss of cellular microtubules”.
On to `CC(=O)O[C@H]1C(=O)[C@@]2(C)[C@H]([C@H](OC(=O)c3ccccc3)[C@]3(O)C[C@H](OC(=O)[C@H](O)[C@@H](NC(=O)c4ccccc4)c4ccccc4)C(C)=C1C3(C)C)[C@]1(OC(C)=O)CO[C@@H]1C[C@@H]2O` [Paclitaxel, reference compound], for which the Rr value with WTβ3 cells was 17.3; in the assay with M6/6 cells it was “over 250 and 265.2”.
For `COc1ccc2c(c1)CCCN2c1nc(C)nc2oc(C)cc12` [Compound 10, 4-(6-methoxy-3,4-dihydroquinolin-1(2H)-yl)-2,6-dimethylfuro[2,3-d]pyrimidine], in assay [1], the “effect on cellular microtubules” value is on record as “dose-dependent loss of cellular microtubules”.
Take `COc1cc(N(C)c2nc(C)nc3oc(C)cc23)cc(OC)c1OC` [Compound 4, N,2,6-trimethyl-N-(3,4,5-trimethoxyphenyl)furo[2,3-d]pyrimidin-4-amine]: the values for the IC50 at EGFR and on VEGFR-2 were above 500 nM and above 300 nM, respectively.
Turning to `Cc1nc(N(C)c2ccc3c(c2)CCO3)c2cc(C)oc2n1` [Compound 6, N-(2,3-dihydro-1-benzofuran-5-yl)-N,2,6-trimethylfuro[2,3-d]pyrimidin-4-amine], in the assay with M6/6 cells, the IC50 is 155 ± 17.2 nM and the Rr value was determined as 1.3. Besides, the “fold better than sunitinib, PDGFR-β” value at PDGFR-β is recorded as “about 4 fold”. The “effect on cellular microtubules” value in assay [1] is “dose-dependent loss of cellular microtubules”. The “fold better than sunitinib, VEGFR-2” value on VEGFR-2 is given as 3 fold.
